Experimental data: a melting point compilation (Tetko et al.; mined from patent text by program, amines drawn as free bases though some values may be those of a salt)

SMILES	melting point
CC(C)(C)OC(=O)NC1COCCCC=CC2CC2(C(=O)NS(=O)(=O)C2CC2)NC(=O)C2CC(OC(=O)c3ccc(Oc4ccccc4)cc3)CN2C1=O (centres undefined)	207 to 209 °C
CCC1(CC)Cc2c(C(=O)O)ccc(OC)c2O1	152 to 154 °C
COc1cccc(SC2CC(=O)N2)c1 (centres undefined)	55 to 56 °C
CC(C)C=C(C=NO)c1ccccc1	107 to 110 °C
CCOC(=O)C(NC(=O)c1ccc(Cl)cc1)C(=O)OCC	89.5 to 90.3 °C
CC(=O)C1=CCC2C3CCC4=CC(=O)CCC4(C)C3CCC12C (centres undefined)	185 to 190 °C
Cn1cc(-c2cccc(C(F)(F)F)c2)c(=O)c(C2CC=CCC2)c1 (centres undefined)	194 to 195 °C
IC=CC(CC1CCCC1)OC(c1ccccc1)(c1ccccc1)c1ccccc1 (centres undefined)	87 to 88 °C
Cc1cc(OS(=O)(=O)C(F)(F)F)ccc1-c1cc(C(F)(F)F)nn1-c1ccc(S(C)(=O)=O)cc1	175 °C
CCOCCOc1cc(C(C)C)c(NC(=O)CN2CCN(CCSc3nc4ccccc4o3)CC2)c(C(C)C)c1	92 to 95 °C
N#CCc1cc2cc(Br)ccc2s1	94 to 96 °C
Cc1ccc(N2CC(=O)N(c3ccc(S(N)(=O)=O)cc3Cl)C2)cc1	223 to 226 °C
COC(=O)c1ccc2cc([C@H]3OC[C@@H](S[C@H](C)[C@](O)(Cn4cncn4)c4ccc(F)cc4F)CO3)ccc2c1	153 °C
CCC(=O)Nc1ccc(C(=O)C(C)Br)cc1 (centres undefined)	126 to 127 °C
CC(=O)c1ccc(CCNS(=O)(=O)c2ccc(Br)cc2)cc1	130 to 131 °C
O=C(O)c1cnn(-c2nc(-c3cc(C(F)(F)F)cc(C(F)(F)F)c3)cs2)c1C(F)(F)F	204 to 205 °C
O=C(NO)c1ccc2c(c1)CCN(C(=O)NCc1ccccc1)C2	149 to 153 °C
CS(=O)(=O)N[C@@H](CCCCNC(=O)OCc1ccccc1)C(=O)O	83.5 to 84 °C
CN(C)c1nn(-c2cc(F)c(C#N)cc2F)c(=O)n1C	131 to 133 °C
Cc1nc(NCCc2ccccc2)c2c(n1)N(c1ccccc1)C(=O)C2	81 to 84 °C
Nc1cc(Cl)cc([N+](=O)[O-])c1C(=O)O	202 to 205 °C
Fc1ccc(C2(c3ccc(F)cc3)CNC(c3cnccn3)=N2)cc1	144 to 146 °C
CC[C@@H]1CN(c2c(F)c(N)c3c(=O)c(C(=O)O)cn(C4CC4)c3c2OC)CC[C@H]1O (relative stereo)	217 to 219 °C

SMILES	melting point
COc1ccc(C(O)(c2ccc3c(c2)c(-c2cccc(Cl)c2)nc2nnnn23)c2cncn2C)cc1 (centres undefined)	200 °C
COc1cc2cc(-c3ccccc3)sc2c(Cl)c1Cl	144 to 145 °C
COC(=O)CCCc1cc2nc(Cl)ccc2n1S(=O)(=O)c1ccc(-c2nccs2)cc1	101 °C
Cc1nc2c(OCc3c(Cl)ccc(S(=O)(=O)N4CCC[C@H]4C(=O)NCCCNC(=O)c4ccc(C(N)=NO)cc4)c3Cl)cccn2c1Cl	155 °C
O=C(Nc1ccccc1)c1cccc(Oc2cccc(C(F)(F)F)c2)n1	92 to 93 °C
O=[N+]([O-])c1cc(CO)cc([N+](=O)[O-])c1-c1ccc(O)cc1	156 to 158 °C
Cc1c(F)cc(C(=O)O)c(Cl)c1N	182 to 184 °C
COc1c(N2CCC(n3nncc3C)C2)c(F)cc2c(=O)c(C(=O)O)cn(C3CC3)c12 (centres undefined)	226 to 228 °C
Cc1cccc(NC(=O)NC2C(=O)Nc3ccccc3NC2=O)c1	> 300 °C
COc1c(C#N)c2c(c3c1OC(C)(C)C3)C(c1ccccc1)=NC(C)(C)C2	166 to 168 °C
CCCn1c(=O)c2c(NC)n[nH]c2n(Cc2ccc(F)cc2)c1=O	262 to 265 °C
O=c1oc(-c2ccccc2Cl)nn1-c1ccccc1C(F)(F)F	100 to 102 °C
Brc1ccc2c(c1)C(c1ccccc1)OC(c1ccncc1)=N2 (centres undefined)	161 to 162 °C
COc1ccccc1Cc1ccc2nc(N)nc(N)c2c1	214 to 215 °C
N#Cc1ccccc1Sc1ccc(Cl)cc1	82 °C
O=C1NC(=O)C(c2ccc(Oc3ccccc3)cc2)C(=O)N1	> 240 °C
Cc1ccc(C)c(S(=O)(=O)n2ccc3c4c(N)nc(N)nc4ccc32)c1	272 °C
O=C(O)C(=O)c1ccc(OCCCCCCOc2ccccc2)cc1	121 to 122 °C
Cc1ccccc1-c1nc(NCCN(C)C)ncc1N(C)C(=O)C(C)(C)c1cc(C(F)(F)F)cc(C(F)(F)F)c1	143 to 144 °C
O=C(O)C#Cc1ccc(Cl)cc1Cl	161 to 163 °C
O=C(O)COc1cccc2c1CCc1sc(NC(c3ccccc3)c3ccccc3)nc1-2	250 to 252 °C
C/C(=C\c1ccc(C(F)(F)F)cc1)C(=O)Nc1cc(Cl)ccc1C(=O)O	228 to 229 °C
COc1ccnc(CCc2nc3cc(-c4ccc(S(=O)(=O)N5CCc6cc(OC)c(OC)cc6C5)cc4)cnc3[nH]2)c1	207 to 208 °C

SMILES	melting point
Cc1cccc(Cl)c1C(=O)N[C@@H](Cc1ccc(-c2cccn(C)c2=O)cc1)C(=O)O	204 to 210 °C
COc1cc2c(cc1OC)C(=O)C(c1ccc(F)cc1)C2 (centres undefined)	189 to 191 °C
COc1ccc2[nH]c(Sc3ccc(C=O)o3)nc2c1	94 to 99 °C
CS(=O)c1coc2cc(NS(C)(=O)=O)c(Oc3ccccc3)cc2c1=O (centres undefined)	> 250 °C
Nc1ncc(-c2ccc(F)cc2)nc1C(=O)Nc1cccnc1	193 to 197 °C
O=C(NC1CC1)c1cccc(-c2ccc3ccn(-c4ccc(Cl)cc4Cl)c3c2)c1	273 to 274 °C
O=C1Cc2cc([N+](=O)[O-])ccc2Sc2cc(Br)ccc21	242 to 245 °C
O=c1[nH]c2c3ccccc3ccc2n(CC2CC2)c1=O	292 °C
CC1COCc2nc3cnc4cc(Br)ccc4c3n21 (centres undefined)	207 to 209 °C
O=c1c2cc(-c3nnn[nH]3)ccc2sc2ncccc12	> 300 °C
CCOC(=O)Cn1c2c(n(Cc3ccccc3)c(=O)c1=O)CCC1=C2C=C(N)CC1	231 °C
Cc1cc(-c2nc3cccnn3c2-c2ccnc(NC(=O)c3ccc(N(C)C)cc3)c2)ccc1F	245 to 246 °C
O=C(Nc1ccccc1OCCCBr)c1cccc2[nH]ccc12	145 °C
CCCCCCCCOC(=O)C=CC(=O)OC(=C1C(=O)N(C(N)=O)c2cc(Cl)c(F)cc21)c1cccs1	140 to 148 °C
CCOC(=O)C(C(=O)CC(C)C)C1c2ccccc2C(=O)N1c1ccc2ccc(Cl)nc2n1 (centres undefined)	145 °C
COc1ccc(N(Cc2cc(C(C)(C)C)c(O)c(C(C)(C)C)c2)S(=O)(=O)c2cccs2)cn1	96 to 97 °C
CN(C)CCCCCCOc1ccc(C(=O)/C=C/c2ccccc2)cc1	43 to 46 °C
CC(=O)C=Cc1ccc(CCNS(=O)(=O)c2ccc(Cl)cc2)cc1	111 to 113 °C
O=P(O)(O)Cc1ccc(C(F)(F)F)cc1	163 to 164 °C
CC(C)Cn1c(=O)n(C)c(=O)c2c(SCCCC(=O)O)n(Cc3cccc4ccccc34)nc21	149 °C
COc1ccc(-c2c(N(C)C(C)C)c(=O)c2=O)cc1	109 to 115 °C
Cc1cc(C)cc(Sc2c(C)c[nH]c(=O)c2NC=O)c1	221 to 222 °C
COC(=O)C(=C1SCCCN1C(=O)C(Cl)Cl)[N+](=O)[O-]	122 °C
